# In patent US20240148701A1, “WOULD HEALING METHODS” (The University of Sydney, priority 2021, published 2024):
# “Also recorded” adds a separate entry of the source.
# Legend:
# HUVECs [1] = test: Cell migration by scratch assay in HUVECs (CL 316,243); type: cell-based, human; conditions: L-NAME 300 μmol/L with CL 316,243
# HUVECs [2] = test: Tubule formation in HUVECs on reduced growth factor extracellular matrix; type: cell-based, human; conditions: L-NAME 300 μmol/L with CL 316,243
# Procedure: (§1) Human umbilical vein endothelial cells (HUVECs; Lonza C2519AS, pooled source, Australia) were grown using standard cell culture conditions in endothelial cell growth medium (EGM Plus®, containing 2% fetal bovine serum, Lonza, Australia). All cells were regularly confirmed to be mycoplasma negative. Two different pooled source cell lines were used in experiments and all were used within passages 2-4. Human adult dermal microvascular endothelial cells were also obtained from Lonza (CC-2543, Lonza Australia) and cultured as above but using endothelial growth medium 2-MV bulletkit. Endothelial colony forming cells (ECFCs) were derived from the peripheral blood of participants in the BioHEART study. This registered study (ACTRN12618001322224) complies with the Declaration of Helsinki and the study protocol and design has been approved by the Northern Sydney Local Health District Human Research Ethics Committee (HREC/17/HAWKE/343). […]
# (§2) Once they were ˜70% confluent, cells were re-suspended in diluted EGM Plus® (1:3) and plated on reduced-growth factor extracellular matrix (15 mg/ml, Cultrex, Trevigen, USA) at a density of 1.5×10^4 cells/cm^2. […] Cells were incubated in an EVOS FL Auto Imaging system for 16 hours and tubule formation recorded every hour. Optimal tube formation occurred at the 8-hour timepoint; tubule number at this point was quantified manually using NIH Image J software. […]
# β3-AR = β3-AR (Homo sapiens, UniProt P13945); conditions: cited from earlier work; for agonist activity at β3-AR: β1- and β2-AR antagonists; for affinity and potency at β3-AR: selective agonists
# C57BL6 mice = test: Splinted wound healing model in STZ-diabetic male mice; type: in vivo, mouse
# Procedure: 8-week-old C57BL6 mice were purchased from Animal Resources Centre (Murdoch, WA) and acclimatised to the Kearns Facility over a 1-week period. Mice were group housed (5/cage) within a Physical Containment Level 2 laboratory and were allowed food and water ad libitum. After acclimatisation, 60 mice were weighed daily and given five consecutive daily intraperitoneal injections of Streptozotocin (STZ) solution (55 mg/kg/day) dissolved in sodium citrate (0.1 M) using a standard insulin needle (30 gauge). After the final injection, mice were weighed and blood glucose level (BGL) measured weekly by pricking the most distal point on the tail with a needle to obtain a blood drop, used with an AccuCheck BGL monitor. Mice became become diabetic over 4 weeks post-STZ, as confirmed with a consistent BGL of 15 mmol/L and if greater than 10% weight loss was observed, insulin was delivered via intraperitoneal injection (1 IU in saline). 4 mice were excluded due to severe weight loss during diabetes induction that exceeded ethical protocols. […] Wounds were measured daily for 12 days by removing opsite covering and using digital callipers to measure wound diameter across 3 axes which were averaged and used to calculate circular wound area. […] As such, wound data from 2 mice in topical group were not recorded following day 8 due to splint detachment. […]
# HUVECs [3] = test: Scratch migration assay in HUVECs with Mirabegron; type: cell-based, human; conditions: 0.85-850 nM, over 15 hours, between concentrations
# Procedure: (§3) For assessing the effect of Mirabegron on cell migration: Human umbilical vein endothelial cells (HUVECs; Lonza, C2519AS) were cultured in Endothelial Cell Growth Media containing 2% fetal bovine serum (EGM2) (Lonza, CC-3162) at standard conditions of 37° C. and 5% C02 (SC). Human dermal microvascular diabetic and non-diabetic endothelial cells (db-HMVECs and HMVECs: Lonza, CC2930 and CC2543 respectively) were cultured in Microvascular Endothelial Growth Media containing 2% fetal bovine serum (FBS) (EGM-2MV) (Lonza, CC-3202) at ST. Cells were between passage 4 and 7 when used.
# To first investigate whether the role that β3AR activation plays in endothelial cell migration was dose dependant, the inventors measured migration of HUVECs in media with multiple concentrations of Mirabegron (0.85, 8.5, 85 & 850 nM) using a scratch migration assay.
# [4] = Topical lipogel on explanted skin, DESI-Mass spec detection; type: in vitro ADME, mouse; conditions: lipogel applied to freshly explanted skin for 5.5 hrs
# Text: A lipogel comprising the β3AR agonist Mirabegron was applied to freshly explanted skin for 5.5 hrs. Skin was then snap frozen in liquid nitrogen and cryosectioned at 40 μum thickness.
# DESI-Mass spec was then used to scan the tissue at 30 μm resolution. Tissue image was constructed using mass signal 284 which was presented in high quantity throughout the tissue. Mirabegron was detected using mass signal 397 and overlayed onto the tissue image. The same slide used for DESI-Mass spec was subsequently stained with H&E.
# diabetic HMVECs = test: Scratch migration assay in diabetic HMVECs with Mirabegron; type: cell-based, human; conditions: 85 nM, 4.5 hours, vs control
# Procedure: as §3
# To investigate the potential for Mirabegron to improve migration by reversing oxidative stress, diabetic and non-diabetic HMVECs were used in a scratch migration assay. 85 nM of Mirabegron was used with a control on both cell types.
# [5] = tested on: human adult dermal microvascular endothelial cells (MVEC); test: Tubule formation in human adult dermal microvascular endothelial cells; type: cell-based; conditions: β3AR antagonist 1 μmol/L with CL 316,243 100 ng/ml
# Procedure: as §1, §2
# Chain of β3-AR (P13945 whole entry): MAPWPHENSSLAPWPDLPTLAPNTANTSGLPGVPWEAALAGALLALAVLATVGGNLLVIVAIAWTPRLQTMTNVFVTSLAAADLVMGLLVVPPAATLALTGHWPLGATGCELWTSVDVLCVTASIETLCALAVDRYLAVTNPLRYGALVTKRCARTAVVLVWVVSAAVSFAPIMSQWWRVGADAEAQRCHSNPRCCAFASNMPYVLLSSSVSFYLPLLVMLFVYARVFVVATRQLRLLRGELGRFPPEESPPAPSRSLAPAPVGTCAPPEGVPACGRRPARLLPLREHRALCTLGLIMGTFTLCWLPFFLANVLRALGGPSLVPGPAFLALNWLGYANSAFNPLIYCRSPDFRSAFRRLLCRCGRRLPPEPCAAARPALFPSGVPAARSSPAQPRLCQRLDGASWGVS
structure (smiles),measurement,setting,value
"COC(=O)[C@@H](N)CCCNC(=N)N[N+](=O)[O-] [L-NAME, Nω-nitro-L-arginine methyl ester]",effect on β3AR-stimulated cell migration rate in HUVECs,HUVECs [1],abolished
same,effect on β3AR-stimulated tubule formation in HUVECs,HUVECs [2],abolished
CC(C)NCC(O)COc1cccc2[nH]ccc12 (stereo not shown) [pindolol],agonist activity at β3-AR,β3-AR,partial agonist activity
Cc1cc(OCC(=O)O)c(C)cc1CCN[C@@H](C)[C@H](O)c1ccc(O)cc1 [ritobegron],affinity and potency at β3-AR,β3-AR,high affinity and potency
CC(C)(Cc1c[nH]c2ccccc12)NCC(O)COc1ccccc1C#N (stereo not shown) [bucindolol],agonist activity at β3-AR,β3-AR,partial agonist activity
"Nc1nc(CC(=O)Nc2ccc(CCNC[C@H](O)c3ccccc3)cc2)cs1 [Mirabegron, 2-(2-Amino-1,3-thiazol-4-yl)-N-[4-(2-{[(2R)-2-hydroxy-2-phenylethyl]amino}ethyl)phenyl]acetamide]",wound healing (wound closure over time),"C57BL6 mice; topical lipogel daily, 12 days, vs vehicle lipogel, p=0.009",Significant improvement
same,wound healing at day 2,"C57BL6 mice; topical, day 2, n=14, p=0.0238",significant improvement
same,migration of HUVECs,HUVECs [3],No significant difference; also recorded: no impact
same,absorption into skin tissue (DESI-Mass spec signal 397),[4],detected in the tissue; also recorded: deliver through to the dermis
same,migration of diabetic HMVECs,diabetic HMVECs,improved the migration; also recorded: seemed to improve the migration; also recorded: improves migration
same,affinity and potency at β3-AR,β3-AR,high affinity and potency
O=C(O)c1cccc(-c2cccc(NCCNC[C@H](O)c3cccc(Cl)c3)c2)c1 [solabegron],affinity and potency at β3-AR,β3-AR,high affinity and potency
CC(C)(C)NCC(O)COc1cccc2[nH]c(=O)[nH]c12 (stereo not shown) [CGP12177A],agonist activity at β3-AR,β3-AR,partial agonist activity
CCc1ccccc1OC[C@@H](O)CN[C@H]1CCCc2ccccc21.O=C(O)C(=O)O [SR 592230A],"effect on CL 316,243-induced tubule formation",[5],abolished
O=C(Nc1ccc(C[C@@H]2CC[C@H]([C@H](O)c3ccccc3)N2)cc1)[C@@H]1CCc2nccc(=O)n21 [vibegron],affinity and potency at β3-AR,β3-AR,high affinity and potency
CC(C)(C)NCC(O)COc1cccc2c1CC(O)C(O)C2 (stereo not shown) [nadolol],affinity at β3-AR,β3-AR; β-AR antagonists,atypically low affinity
